Structures can show the parent of a compound that is named as a salt. Where two headings read alike, the source gives them in different places.
Target: T1, GLP-1 Receptor (GLP1R) (Homo sapiens, UniProt P43220)
T1 construct: host or cells: HEK293/GLP1R/CRE-LUC
Assay: GLP-1R agonist cAMP stimulation assay (Method 3)
Type: cell-based
Settings: HEK293/GLP1R/CRE-LUC cells (HDB), Method 3, 30 min incubation
Protocol: Method 3: Activation of GLP-1 receptor is known to stimulate cyclic AMP (cAMP) production in cells which indicates primary coupling to the Gαs subunit of the G protein heterotrimeric complex.
To optimize functional activity directed toward Gαs coupling, a HEK293/CRE-Luc cell line developed by HDB stably expressing the GLP-1 Receptor was used, 200× concentration of compound working solutions were prepared (Agilent Technologies Bravo) with 1/2 log serial dilution in 384-well Echo LDV plate (Labcyte, Cat #LP-0200). 50 nL/well 200× concentration of compound working solutions were moved to 384-well white low volume plate (Greiner, Cat #784075) using Labcyte ECHO550. 1×10^5 cells/mL HEK293/GLP1R/CRE-LUC(HD Biosciences) cell suspensions prepared with assay buffer [DPBS containing 0.5 mM IBMX (Sigma, Cat #15879) and 0.1% BSA (GENVIEW, Cat #FA016-100 g)], 10 μL cell suspensions were added to each well of previous generated assay plate which already contains 50 nL compound at 200× concentration using ThermoFisher Multidrop Combi (1000 cells/well). Seal the plate and incubate at 37° C. with 5% CO2 for 30 min.
After incubation the cAMP assay signal was generated using cAMP dynamic 2 Kit (Cisbio). 5 μL cAMP-d2 working solution was added to each well, followed with 5 μL Anti-cAMP antibody-cryptate working solution added to each well using ThermoFisher Multidrop Combi. Incubate at room temperature for 1 hour protected from light. Read the fluorescence at 665 nm and 615 nm with Reader PerkinElmer EnVision.

[1] = read-out: GLP1R cAMP Stimulation DR: EC50 (nM) [Species: Human, Assay Cell Line: HDB]
[2] = read-out: GLP1R cAMP Stimulation DR: pEC50 (M) [Species: Human, Assay Cell Line: HDB] (converted)

T1 sequence (P43220 24-463): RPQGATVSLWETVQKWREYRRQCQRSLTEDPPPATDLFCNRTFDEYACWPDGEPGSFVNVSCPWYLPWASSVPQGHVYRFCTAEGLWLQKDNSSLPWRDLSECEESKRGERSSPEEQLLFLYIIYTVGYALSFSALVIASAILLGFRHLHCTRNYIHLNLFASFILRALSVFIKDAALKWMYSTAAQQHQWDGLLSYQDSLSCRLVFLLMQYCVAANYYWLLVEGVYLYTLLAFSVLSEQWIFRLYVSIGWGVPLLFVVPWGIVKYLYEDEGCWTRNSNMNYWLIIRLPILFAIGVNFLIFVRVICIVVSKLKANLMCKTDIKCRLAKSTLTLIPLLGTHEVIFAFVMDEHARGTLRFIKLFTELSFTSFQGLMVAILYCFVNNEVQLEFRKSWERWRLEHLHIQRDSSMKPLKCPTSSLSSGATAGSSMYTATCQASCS

CCP(=O)(CC)c1ccc(-n2ccn(-c3c4c(nn3-c3cc(C)c(F)c(C)c3)CCN(C(=O)c3cc5cc(C6CCOCC6)ccc5n3[C@@]3(c5noc(=O)[nH]5)C[C@@H]3C)[C@H]4C)c2=O)cc1NS(C)(=O)=O [Compound 116a]
EC50 [1]: 0.2 to 0.5 nM | EC50 [2]: 0.1 to 1 nM

CCP(=O)(CC)c1ccc(-n2ccn(-c3c4c(nn3-c3cc(C)c(F)c(C)c3)CCN(C(=O)c3cc5cc(C6CCOCC6)ccc5n3[C@@]3(c5noc(=O)[nH]5)C[C@@H]3C)[C@H]4C)c2=O)cc1N(C)C [Compound 117a, 3-((1S,2S)-1-(2-((S)-3-(3-(4-(diethylphosphoryl)-3-(dimethylamino)phenyl)-2-oxo-2,3-dihydro-1H-imidazol-1-yl)-2-(4-fluoro-3,5-dimethylphenyl)-4-methyl-4,5,6,7-tetrahydro-2H-pyrazolo[4,3-c]pyridine-5-carbonyl)-5-(tetrahydro-2H-pyran-4-yl)-1H-indol-1-yl)-2-methylcyclopropyl)-1,2,4-oxadiazol-5(4H)-one HCl salt]
EC50 [1]: 0.2 to 0.5 nM | EC50 [2]: 0.1 to 1 nM

CCP(=O)(CC)c1ccc(-n2ccn(-c3c4c(nn3-c3cc(C)c(F)c(C)c3)CCN(C(=O)c3cc5cc(C6CCOCC6)ccc5n3[C@@]3(c5noc(=O)[nH]5)C[C@@H]3C)[C@H]4C)c2=O)cc1OC [Compound 118a, 3-((1S,2S)-1-(2-((S)-3-(3-(4-(diethylphosphoryl)-3-methoxyphenyl)-2-oxo-2,3-dihydro-1H-imidazol-1-yl)-2-(4-fluoro-3,5-dimethylphenyl)-4-methyl-4,5,6,7-tetrahydro-2H-pyrazolo[4,3-c]pyridine-5-carbonyl)-5-(tetrahydro-2H-pyran-4-yl)-1H-indol-1-yl)-2-methylcyclopropyl)-1,2,4-oxadiazol-5(4H)-one]
EC50 [1]: < 0.1 nM | EC50 [2]: ≤ 0.1 nM

CCP(=O)(CC)c1ccc(-n2ccn(-c3c4c(nn3-c3cc(C)c(F)c(C)c3)CCN(C(=O)c3cc5cc(C6CCOCC6)ccc5n3[C@@]3(c5noc(=O)[nH]5)C[C@@H]3C)[C@H]4C)c2=O)cc1NC(C)C [Compound 119a, 3-((1S,2S)-1-(2-((S)-3-(3-(4-(diethylphosphoryl)-3-(isopropylamino)phenyl)-2-oxo-2,3-dihydro-1H-imidazol-1-yl)-2-(4-fluoro-3,5-dimethylphenyl)-4-methyl-4,5,6,7-tetrahydro-2H-pyrazolo[4,3-c]pyridine-5-carbonyl)-5-(tetrahydro-2H-pyran-4-yl)-1H-indol-1-yl)-2-methylcyclopropyl)-1,2,4-oxadiazol-5(4H)-one]
EC50 [1]: 0.2 to 0.5 nM | EC50 [2]: 0.1 to 1 nM

CCNc1cc(-n2ccn(-c3c4c(nn3-c3cc(C)c(F)c(C)c3)CCN(C(=O)c3cc5cc(C6CCOCC6)ccc5n3[C@@]3(c5noc(=O)[nH]5)C[C@@H]3C)[C@H]4C)c2=O)ccc1P(=O)(CC)CC [Compound 120a, 3-((1S,2S)-1-(2-((S)-3-(3-(4-(diethylphosphoryl)-3-(ethylamino)phenyl)-2-oxo-2,3-dihydro-1H-imidazol-1-yl)-2-(4-fluoro-3,5-dimethylphenyl)-4-methyl-4,5,6,7-tetrahydro-2H-pyrazolo[4,3-c]pyridine-5-carbonyl)-5-(tetrahydro-2H-pyran-4-yl)-1H-indol-1-yl)-2-methylcyclopropyl)-1,2,4-oxadiazol-5(4H)-one]
EC50 [1]: < 0.1 nM | EC50 [2]: ≤ 0.1 nM

CCP(=O)(CC)c1ccc(-n2ccn(-c3c4c(nn3-c3cc(C)c(F)c(C)c3)CCN(C(=O)c3cc5cc(C6CCOCC6)ccc5n3[C@@]3(c5noc(=O)[nH]5)C[C@@H]3C)[C@H]4C)c2=O)cc1NC [Compound 121a, 3-((1S,2S)-1-(2-((S)-3-(3-(4-(diethylphosphoryl)-3-(methylamino)phenyl)-2-oxo-2,3-dihydro-1H-imidazol-1-yl)-2-(4-fluoro-3,5-dimethylphenyl)-4-methyl-4,5,6,7-tetrahydro-2H-pyrazolo[4,3-c]pyridine-5-carbonyl)-5-(tetrahydro-2H-pyran-4-yl)-1H-indol-1-yl)-2-methylcyclopropyl)-1,2,4-oxadiazol-5(4H)-one]
EC50 [1]: < 0.1 nM | EC50 [2]: ≤ 0.1 nM

Cc1cc(-n2nc3c(c2-n2ccn(-c4ccc(P(C)(C)=O)cc4F)c2=O)[C@H](C)N(C(=O)c2cc4cc(C5CCOCC5)ccc4n2[C@@]2(c4noc(=O)[nH]4)C[C@@H]2C)CC3)cc(C)c1F [Compound 122a, 3-((1S,2S)-1-(2-((S)-3-(3-(4-(dimethylphosphoryl)-2-fluorophenyl)-2-oxo-2,3-dihydro-1H-imidazol-1-yl)-2-(4-fluoro-3,5-dimethylphenyl)-4-methyl-4,5,6,7-tetrahydro-2H-pyrazolo[4,3-c]pyridine-5-carbonyl)-5-(tetrahydro-2H-pyran-4-yl)-1H-indol-1-yl)-2-methylcyclopropyl)-1,2,4-oxadiazol-5(4H)-one]
EC50 [1]: < 0.1 nM | EC50 [2]: ≤ 0.1 nM

Cc1cc(-n2nc3c(c2-n2ccn(-c4ccc(P(C)(C)=O)c(OC(F)(F)F)c4)c2=O)[C@H](C)N(C(=O)c2cc4cc(C5CCOCC5)ccc4n2[C@@]2(c4noc(=O)[nH]4)C[C@@H]2C)CC3)cc(C)c1F [Compound 123a, 3-((1S,2S)-1-(2-((S)-3-(3-(4-(dimethylphosphoryl)-3-(trifluoromethoxy)phenyl)-2-oxo-2,3-dihydro-1H-imidazol-1-yl)-2-(4-fluoro-3,5-dimethylphenyl)-4-methyl-4,5,6,7-tetrahydro-2H-pyrazolo[4,3-c]pyridine-5-carbonyl)-5-(tetrahydro-2H-pyran-4-yl)-1H-indol-1-yl)-2-methylcyclopropyl)-1,2,4-oxadiazol-5(4H)-one]
EC50 [1]: 0.2 to 0.5 nM | EC50 [2]: 0.1 to 1 nM

Cc1cc(-n2ccn(-c3c4c(nn3-c3cc(C)c(F)c(C)c3)CCN(C(=O)c3cc5cc(C6CCOCC6)ccc5n3[C@@]3(c5noc(=O)[nH]5)C[C@@H]3C)[C@H]4C)c2=O)ccc1P(C)(C)=O [Compound 124a, 3-((1S,2S)-1-(2-((S)-3-(3-(4-(dimethylphosphoryl)-3-methylphenyl)-2-oxo-2,3-dihydro-1H-imidazol-1-yl)-2-(4-fluoro-3,5-dimethylphenyl)-4-methyl-4,5,6,7-tetrahydro-2H-pyrazolo[4,3-c]pyridine-5-carbonyl)-5-(tetrahydro-2H-pyran-4-yl)-1H-indol-1-yl)-2-methylcyclopropyl)-1,2,4-oxadiazol-5(4H)-one]
EC50 [1]: < 0.1 nM | EC50 [2]: ≤ 0.1 nM

Cc1cc(-n2nc3c(c2-n2ccn(-c4ccc(P(C)(C)=O)c(N5CCOCC5)c4)c2=O)[C@H](C)N(C(=O)c2cc4cc(C5CCOCC5)ccc4n2[C@@]2(c4noc(=O)[nH]4)C[C@@H]2C)CC3)cc(C)c1F [Compound 125a, 3-((1S,2S)-1-(2-((S)-3-(3-(4-(dimethylphosphoryl)-3-morpholinophenyl)-2-oxo-2,3-dihydro-1H-imidazol-1-yl)-2-(4-fluoro-3,5-dimethylphenyl)-4-methyl-4,5,6,7-tetrahydro-2H-pyrazolo[4,3-c]pyridine-5-carbonyl)-5-(tetrahydro-2H-pyran-4-yl)-1H-indol-1-yl)-2-methylcyclopropyl)-1,2,4-oxadiazol-5(4H)-one]
EC50 [1]: 0.2 to 0.5 nM | EC50 [2]: 0.1 to 1 nM
